How the values were obtained:
[1] = biological target: T1, human mGlu2 receptor (Homo sapiens, UniProt Q14416); assay: [35S]GTPγS binding assay (mGluR2 negative allosteric modulation, glutamate ~EC80 60 μM); format: biochemical; conditions: for Emax: maximal % inhibition relative to the control glutamate response (EC80 glutamate), read-out: GTPγS-hmGluR2 anGT Emax; for IC50: membranes from CHO cells transfected with human mGlu2 receptor, glutamate ~EC80 (60 μM), pIC50 = −log IC50 (M), read-out: GTPγS-hmGluR2 anGT pIC50 (converted)
T1 construct: expressed in transfected cells; host or cells: CHO cells
T1 sequence (Q14416 19-872): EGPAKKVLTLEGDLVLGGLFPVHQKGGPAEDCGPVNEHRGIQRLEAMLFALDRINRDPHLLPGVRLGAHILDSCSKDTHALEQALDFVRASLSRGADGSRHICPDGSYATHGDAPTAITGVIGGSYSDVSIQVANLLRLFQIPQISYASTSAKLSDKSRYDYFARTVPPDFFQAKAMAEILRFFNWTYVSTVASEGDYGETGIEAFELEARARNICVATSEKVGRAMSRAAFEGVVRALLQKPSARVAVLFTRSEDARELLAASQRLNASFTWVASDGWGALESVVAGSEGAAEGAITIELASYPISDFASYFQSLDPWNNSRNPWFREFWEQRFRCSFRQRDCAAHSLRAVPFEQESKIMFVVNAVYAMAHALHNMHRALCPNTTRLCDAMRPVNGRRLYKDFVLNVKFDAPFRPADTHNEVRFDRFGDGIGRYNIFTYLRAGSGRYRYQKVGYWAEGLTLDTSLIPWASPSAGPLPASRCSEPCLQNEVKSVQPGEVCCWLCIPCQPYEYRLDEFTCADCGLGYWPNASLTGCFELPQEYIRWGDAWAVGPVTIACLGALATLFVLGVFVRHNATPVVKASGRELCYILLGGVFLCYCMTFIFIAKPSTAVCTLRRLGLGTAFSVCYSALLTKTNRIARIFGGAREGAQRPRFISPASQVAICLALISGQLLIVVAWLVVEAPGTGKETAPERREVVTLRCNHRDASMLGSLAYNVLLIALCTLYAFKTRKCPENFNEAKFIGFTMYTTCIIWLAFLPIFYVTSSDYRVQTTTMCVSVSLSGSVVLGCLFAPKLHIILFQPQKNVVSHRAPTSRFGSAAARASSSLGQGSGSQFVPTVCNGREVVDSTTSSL
Method: 1) [^35S]GTPγS Binding Assay
[^35S]GTPγS Binding Assay
Total reaction volume was 200 μl. […] Membrane-bound radioactivity was counted in a Topcount.

[2] = tested on: Male Wiga Wistar rats; assay: Reversal of LY-404039-induced decrease of palpebral opening in apomorphine-challenged rats (APO LY-404039); format: in vivo, rat; conditions: Rattus norvegicus, PO (oral route); apomorphine challenged rats;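 also: Reversal defined as cumulative palpebral opening score above 26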
Method: B) In Vivo Pharmacology 1) Reversal of LY-404039-Induced Decrease of Palpebral Opening in Apomorphine-Challenged Rats.
Male Wiga Wistar rats (Crl:WI; Charles River Germany; 220±40 g) were housed under standard laboratory conditions (21±2° C.; 50-65% relative humidity; light-dark cycle set at 12 h; lights on at 6.00 h) and fasted overnight prior to the start of the experiments (tap water remained available ad libitum). During the test period, they were housed in individual cages. Palpebral opening was scored every 5 min over the first hour after injection of apomorphine (1.0 mg/kg, i.v.) in animals either pretreated or not pretreated with LY-404039 (2.5 mg/kg, s.c.) at 1 h prior to the apomorphine injection. The animals were also pretreated with test compound or solvent at a predefined interval before apomorphine challenge. The score system was: (5) exophthalmos, (4) wide open, (3) open for three-quarters, (2) half open, (1) open for one-quarter, (0) closed. The scores for palpebral opening were cumulated over the 60-min observation period.
In animals receiving apomorphine alone the median palpebral opening is 43 whereas in animals receiving apomorphine and LY-404039, the median palpebral opening is 17.

[3] = tested on: rats; assay: Reversal of the effect of the mGluR2 PAM JNJ-42153605-induced inhibition of scopolamine-induced hyperlocomotion (SCOP JNJ-42153605); format: in vivo, rat; conditions: Rattus norvegicus; PO (oral route); rats; reversal criterion total distance >1500 cm
Method: 2) Reversal of the Effect of the mGluR2 PAM JNJ-42153605-Induced Inhibition of Scopolamine-Induced Hyperlocomotion Apparatus
Motor activity was measured in microprocessor-based motor activity arenas (closed gray PVC cylinders with a height of 39 cm and a diameter of 31 cm). Each arena was placed on an infrared LED (8×8 LEDs) lit box (white PVC squared box; 40×40 cm^2; height 12.5 cm. An infrared-sensitive tube camera and a white light source were mounted to the ceiling above the observation chamber to track the animal. The total distance traveled (cm) was recorded and analyzed using the Noldus Ethovision XT Video Tracking System (Version 7.0.418; Noldus, Wageningen, The Netherlands). The intensity of the light within the activity cages (measured in the centre at the level of the floor) ranged between 4 and 8 LUX.
The rats were pretreated with test compound or vehicle at 60 min before the start of the activity recordings and placed into individual cages. The rats were challenged with JNJ-42153605 (3-(cyclopropylmethyl)-7-(4-phenylpiperidin-1-yl)-8-(trifluoromethyl)[1,2,4]triazolo[4,3-a]pyridine; WO2010/130424; Cid et al. J. Med. Chem. 2012, 55, 8770-8789) (20 mg/kg, i.v.) 30 min before the start of the activity recording combined with scopolamine (0.16 mg/kg, i.v.) just before the start of the activity measurements. Immediately after the injection of scopolamine, the rats were placed into the activity monitors and total distance travelled over the first 30 min was measured.
Solvent-Pretreated Control Rats.
Animals receiving the combination of JNJ-42153605 and scopolamine (n=433) almost always travelled a distance of less than 1500 cm (<1500 cm) (only 2.5% of the control rats travelled a distance of more than 1500 cm (>1500 cm)). On the other hand, animals challenged with scopolamine alone (n=215) always travelled a total distance of more than 1500 cm (>1500 cm) and almost always (in 95.8% of the rats) a distance of more than 4400 cm (>4400 cm). […] For reversal of the inhibitory effect of JNJ-42153605 on the scopolamine-induced hyperlocomotion, the following all-or-none criteria were adopted: (1) reversal: total distance >1500 cm.

[4] = tested on: Wiga rats; assay: Induction of mydriasis (MYD); format: in vivo; conditions: Rattus norvegicus, PO (oral route), pupil diameter >25 units, 1-3 h post-administration
Method: 3) Induction of Mydriasis
The pupil diameter of Wiga rats was measured with a microscopic micrometer (1 unit=1/24 mm). Criteria for drug-induced effects: pupil diameter >25 units for mydriasis (in controls: 1.9%) 1, 2 or 3 h post-administration of the test compound (wherein the maximum pupil diameter over the full 3 h period is reported).

SMILES | Emax [1] [%] | IC50 [1] [M] | ED50 [2] [mg/kg] | ED50 [3] [mg/kg] | melting point [°C] | ED50 [4] [mg/kg]
Cc1ccncc1C(=O)Nc1cnn2c1C(=O)N(c1ccc(C(F)(F)F)c(Cl)c1)C[C@@H]2C [Co. No. 120] | 109 | 1.82e-09 | > 0.63 | > 0.63 | 145.92 | 
C[C@H]1CN(c2ccc(C(F)(F)F)c(F)c2)C(=O)c2c(NC(=O)c3cccnc3)cnn21 [Co. No. 148] | 105 | 8.51e-09 | > 0.63 | > 0.63 | 166.06 | 
Cc1cc(C(=O)Nc2cnn3c2C(=O)N(c2ccc(Cl)c(Cl)c2)C[C@@H]3C)ccn1 [Co. No. 171] | 104 | 2.29e-09 | > 0.63 | > 0.63 | 108.41 | 
C[C@H]1CN(c2ccc(S(F)(F)(F)(F)F)cc2)C(=O)c2c(NC(=O)c3cccnc3)cnn21 [Co. No. 175] | 108 | 3.16e-09 |  | 0.318 | 205.19 | > 10
C[C@H]1CN(c2ccc(C(F)(F)F)c(Cl)c2)C(=O)c2c(NC(=O)c3cnccn3)cnn21 [Co. No. 176] | 108 | 1.7e-09 |  | 0.32 | 230.53 | > 10
C[C@H]1CN(c2ccc(OC(F)(F)F)cc2)C(=O)c2c(NC(=O)c3cccnc3)cnn21 [Co. No. 178] | 105 | 1.48e-08 |  | 0.318 | 125.45 | > 10
C[C@H]1CN(c2ccc(C(F)(F)F)c(Cl)c2)C(=O)c2c(NC(=O)c3cccnc3N)cnn21 [Co. No. 182] | 110 | 7.08e-10 |  | 0.0985 | 142.58 | > 10
Cc1cc(N2C[C@H](C)n3ncc(NC(=O)c4cccnc4N)c3C2=O)ccc1C(F)(F)F [Co. No. 184] | 110 | 1.23e-09 |  | 0.2 | 175.63 | > 10
C[C@H]1CN(c2ccc(Cl)c(Cl)c2)C(=O)c2c(NC(=O)c3cccnc3N)cnn21 [Co. No. 185] | 113 | 1.07e-09 |  | 0.08 | 193.17 | > 10
C[C@H]1CN(c2ccc(C(F)(F)F)cc2)C(=O)c2c(NC(=O)c3cccnc3N)cnn21 [Co. No. 189] | 109 | 1.82e-09 |  | 0.2 | 214.96 | > 10
Cc1cnc(N)c(C(=O)Nc2cnn3c2C(=O)N(c2ccc(C(F)(F)F)cc2)C[C@@H]3C)c1 [Co. No. 191] | 112 | 1.95e-09 |  | 0.318 | 222.34 | > 10
C[C@H]1CN(c2ccc(OC(F)(F)F)cc2)C(=O)c2c(NC(=O)c3cccnc3N)cnn21 [Co. No. 196] | 109 | 2.63e-09 |  | 0.32 | 188.46 | > 10
Cc1cnc(N)c(C(=O)Nc2cnn3c2C(=O)N(c2ccc(C(F)(F)F)c(C)c2)C[C@@H]3C)c1 [Co. No. 197] | 108 | 1.32e-09 |  | 0.13 | 190.13 | > 10
